Type in all cases: cell-based, human
Data set [1] concerns HepG2 cells. In words: Cell viability by CCK-8 method, HepG2. The conditions noted are these: HepG2, 10 nM, 72 h, FIG. 6B. The procedure:
(§1) 8 LHPP promoter-targeting saRNAs were individually transfected into liver cancer cells at 10 nM for 72 h. In FIG. 6A, the expression level of LHPP mRNA was analyzed by RT-qPCR. In FIG. 6B, cell viability in the saRNA treatment group was evaluated by the CCK-8 method and recorded as a percentage relative to the viability of cells in a control (Mock) treatment group.
(§2) The cell viability was detected by the following CCK-8 method: the cCells were plated into a 96-well plate at 3-5×10^3 cells/well, cultured overnight, and transfected with the oligonucleotide duplexes. After 72 hour of transfection, 10 uL of CCK-8 solution (Dojindo Molecular Technologies) was added into each well. After 1 hour of incubation at 37° C., a microplate reader was used to measure absorbances at 450 nm. […]

For the next data set, the system named is glioma cell line U87MG. Put plainly: Cell viability by CCK-8 method, U87MG. As to conditions: 10 nM, 72 h, FIG. 7B. The procedure: (§3) 8 LHPP promoter-targeting saRNAs were individually transfected into cancer cells at 10 nM for 72 h. In FIG. 7A, the expression level of LHPP mRNA was analyzed by RT-qPCR. In FIG. 7B, cell viability in the saRNA treatment group was evaluated by the CCK-8 method and recorded as a percentage relative to the viability of cells in a control (Mock) treatment group.
(§4) The cell viability was detected by the following CCK-8 method: the cCells were plated into a 96-well plate at 3-5×10^3 cells/well, cultured overnight, and transfected with the oligonucleotide duplexes. After 72 hour of transfection, 10 uL of CCK-8 solution (Dojindo Molecular Technologies) was added into each well. After 1 hour of incubation at 37° C., a microplate reader was used to measure absorbances at 450 nm.
(§5) In order to further evaluate the effect of LHPP saRNAs in inducing the mRNA expression of the LHPP gene and inhibiting the proliferation of cancer cells, eight screened saRNAs (RAG7-132, RAG7-133, RAG7-139, RAG7-177, RAG7-178, RAG7-694, RAG7-707 and RAG7-892) each were transfected into the liver cancer cell lines Huh7 (Medical Cell Resource Center, Tohoku University, Japan), HepG2 (ATCC), Hep3B (ATCC), Li-7 (Medical Cell Resource Center, Tohoku University, Japan) and SK-HEP-1 (ATCC), a lung cancer cell line A549 (ATCC), a bladder cancer cell line T24 (ATCC), a prostatic cancer cell line PC3 (ATCC), and a glioma cell line U87MG (ATCC). The mRNA expression and cell viability of the transfected cells were measured.

Another data set deals with U87MG cells. In words: saRNA in combination with chemical drugs, CCK-8 viability and combination index (Compusyn), U87MG. The method, then:
The sRNAs were transfected into cancer cells at different concentrations in combination with different chemical drugs. In FIG. 9A, cell viability in the saRNA treatment group was evaluated by the CCK-8 method and recorded as a percentage relative to the viability of cells in a control (Mock) treatment group. In FIG. 9B, Compusyn© version 1.0 software was used to draw a combination index graphs; and to calculate combination index values as shown in FIG. 9C.
(§6) The compounds used in the study included: Sorafenib (Sora) (SELLECK, S1040), Lenvatinib (Lenv) (SELLECK, S1164), Regorafenib (Rego) (SELLECK, S1178), and Cabozantinib (Cabo) (SELLECK, S1119). Cells were transfected with each candidate saRNAs at varying concentration gradients for 24 hours. Thereafter, the aforementioned compounds were added to the transfected cells at a concentration of 5 μM and the cells were incubated with the compounds for 48 hours. Cell viability was measured using the CCK-8 method. Compusyn© version 1.0 software (ComboSyn, Inc. Paramus, N.J., USA) was used to analyze the combination index (CI) of drugs, wherein CI<1 represented a synergistic effect, CI=1 represented an additive effect, and CI>1 represented an antagonistic effect.

In data set [2] the test system is HepG2 cells. In words: saRNA in combination with chemical drugs, CCK-8 viability and combination index (Compusyn), HepG2. The method, then:
The saRNAs were transfected into cancer cells at different concentrations in combination with a panel of chemical drugs. In FIG. 8A, cell viability in the saRNA treatment group was evaluated by the CCK-8 method and recorded as a percentage relative to the viability of cells in a control (Mock) treatment group. In FIG. 8B, Compusyn© version 1.0 software was used to draw a combination index graphs; and to calculate combination index values as shown in FIG. 8C.
as §6

For a further data set, the system named is Li-7 cells. In words: Cell viability by CCK-8 method, Li-7. The conditions noted are these: Li-7, 10 nM, 72 h, FIG. 6B. The method, then:
as §1, §2

Data set [3] concerns bladder cancer cell line T24. Put plainly: Cell viability by CCK-8 method, T24. The conditions noted are these: T24, 10 nM, 72 h, FIG. 7B. The procedure:
as §3, §4, §5

The next data set relates to Huh7 cells. Put plainly: Cell viability by CCK-8 method, Huh7. The conditions noted are these: Huh7, 10 nM, 72 h, FIG. 6B. The procedure:
The 290 saRNAs targeting the LHPP promoter were individually transfected into Huh7 cells, and 72 hour later, one-step RT-qPCR was employed to analyze the expression levels of LHPP mRNA and cell viability was detected by the CCK-8 method.
as §4, §5

d = 2'-deoxy (DNA); r = 2'-OH (RNA) Bounds are passed on as bounds.

With “RAG7-133: saRNA duplex; sense GCUCUUUGUCCGCUGAUCUTT (SEQ ID NO: 1), antisense AGAUCAGCGGACAAAGAGCTT (SEQ ID NO: 165) (sugars from the 5' end r19 d2, backbone not given here)”, the “cell proliferation (cell viability, CCK-8)” value (in the data set with HepG2 cells [1]; in the data set on glioma cell line U87MG; in the data set with Li-7 cells; in data set [3]; with Huh7 cells) was “inhibited cell proliferation” each time. Further, the “combination index (CI)” value in the data set on U87MG cells (saRNA 1.0 nM to 100 nM with Cabozantinib 5 μM) is recorded as under 0.1; with U87MG cells (saRNA 1.0 nM to 100 nM with Lenvatinib 5 μM), under 0.1; in the data set with U87MG cells (saRNA with all the four compounds (Sorafenib, Lenvatinib, Regorafenib, Cabozantinib) 5 μM), under 1; in the data set with HepG2 cells [2] (high dose (25 nM to 100 nM) saRNA with Regorafenib 5 μM) it was under 0.3; in the data set on HepG2 cells [2] (saRNA with Cabozantinib 5 μM), under 1; with HepG2 cells [2] (saRNA with Lenvatinib 5 μM) it was over 1. In addition, the “combination index (CI)” value with HepG2 cells [2] (saRNA with Sorafenib 5 μM) is under 1.

(Values after patent US20220096516A1, “OLIGONUCLEOTIDE MOLECULE AND APPLICATION THEREOF IN TUMOR THERAPY” (Ractigen Therapeutics, priority 2019, published 2022).)
